Consider one compound from patent US20230277508A1, “USE OF COMPOUND AS CYP2E1 INHIBITOR” (SHANGHAI LING XI BIOTECHNOLOGY DEVELOPMENT CO., LTD., priority 2020, published 2023).

The test system of one assay is GL261 cells. In words: Direct effect on GL261 glioma cells in vitro. The class given is cell-based, murine. The procedure: Experimental method: GL261 murine glioma cells and U251 human glioma cells in a logarithmic growth phase each were selected and inoculated into a 96-well plate at a concentration of 5*10^5 cells/mL, then 100 μL of a cell suspension was added to each well, and 12 h later, a medium was discarded; 200 μL of a basic medium including SMI0 at different concentrations ([…]) was added to each well, […]; and the cells were further cultivated for 2 h, and an absorbance OD value of each well was determined at 450 nm by a microplate reader. 3 replicates were set for each well, and an average was taken. The proliferation activity was calculated based on the OD value.

In assay [1] the test system is DEN-induced rat liver damage. In words: DEN-induced rat liver damage model. Conditions: plasma, vs model group. Type of assay: in vivo, SD rat. As to the method:
Experimental method: An SD rat liver damage model was constructed through intermittent intraperitoneal injection of DEN. A model group was injected intraperitoneally with DEN at 50 mg/kg twice a week in the first 4 weeks and then once a week in the 5th to 8th weeks. An SMI0 intervention group, which was injected with DEN at the amount and the way the same as that in the model group, was divided into SMI0+DEN low-dose and high-dose groups and an SMI0 high-dose continuous administration group, where the SMI0+DEN low-dose and high-dose groups were intragastrically administered with the compound SMI0 at 30 mg/kg and 150 mg/kg 5 min before DEN administration each time, respectively; and the SMI0 high-dose continuous administration group was intragastrically administered with the compound SMI0 at 150 mg/kg every day from the 1st week to the 8th week. At the end of molding, blood was collected from the orbit, and plasma liver function indexes of rats were determined by an automatic biochemical analyzer (model group, n=10 rats; SMI0 compound low-dose group, n=21 rats; (150 mg/kg)^a, SMI0 compound+DEN high-dose group, n=28 rats; and (150 mg/kg)^b, SMI0 compound high-dose continuous administration group, n=24 rats].

Assay [2] deals with focal cerebral ischemia-reperfusion injury in rats. Nature of the assay: Focal CIRI rat model with MCAO. The class given is in vivo. An excerpt: Experimental method: A focal CTRI rat model with middle cerebral artery occlusion (MCAO) was constructed by a modified Zea-longa suture-occluded method.
Another assay relates to Lewis lung cancer cells. In words: Direct effect on proliferation of Lewis lung cancer cells (CCK8). Type of assay: cell-based. Conditions: up to 100 μmol/L, 24 h. As to the method:
Experimental method: Lewis lung cancer cells and A549 lung cancer cells in a logarithmic growth phase each were selected and inoculated into a 96-well plate at a concentration of 1*10^5 cells/mL, then 100 μL of a basic medium including SMI0 at different concentrations (0 μmol/L, 0.16 μmol/L, 0.8 μmol/L, 4 μmol/L, 20 μmol/L, and 100 μmol/L) was added to each well, and 24 h later, 10 μL of a CCK8 reagent was added to each well; and the cells were further cultivated for 2 h, and an absorbance OD value of each well was determined at 450 nm by a microplate reader. 3 replicates were set for each well, and an average was taken. The proliferation activity was calculated based on the OD value.

The test system of assay [3] is collagen-induced rheumatoid arthritis in rats. In words: Collagen-induced rat rheumatoid arthritis model. Conditions: SMI0 75, 37.5 and 18.75 mg/kg ig once daily, day 21, vs model group. The class given is in vivo, SD rat. As to the method: Experimental method: A collagen emulsion was used to construct an SD rat rheumatoid arthritis model. 50 rats successfully modeled were randomly divided into five groups: model group (normal saline (NS), 0.5 mL/kg, i.g.); positive control group (celecoxib, 5 mg/kg, i.g.); SMI0 low-dose group (18.75 mg/kg, i.g.); SMI0 medium-dose group (37.5 mg/kg, i.g.); and SMI0 high-dose group (75 mg/kg, i.g.). The rats each were administered once every day starting from the first day after successful modeling. A thickness of each of the left and right hindfeet and the left and right forefeet of rats was measured every day by a vernier caliper, and a volume of each of the left and right hindfeet of rats was measured by a rat foot swelling measuring instrument (which was measured every 12 h in the first 3 days). A foot swelling rate of each rat was calculated according to a change of a hindfoot volume of the rat relative to a hindfoot volume of the rat before the modeling at each time point, and a difference in foot swelling rate between groups of rats was analyzed. After the successful modeling, blood was collected from the orbit on day 7; rats were sacrificed on day 20, blood was collected, and serum was isolated; and tissues such as ankles, toe joints, spleens, and livers were collected. […]

The mark [4] stands for this setting: SMI0 intervention group, 8 weeks.

Consider `CC(=O)c1scnc1C` [SMI0], for which, in the assay with GL261 cells (0 μM to 128 μM, 48 h), the “inhibitory effect on GL261” value is “no significant inhibitory effect”. In addition, in the assay on GL261 cells (up to 128 μmol/L or 200 μmol/L, CCK8), the “effect on the proliferation of GL261 glioma cells” value is “no significant inhibitory effect”. The “albumin (ALB2) level” value in assay [1] (SMI0 intervention group (30, 150 mg/kg ig before DEN; 150 mg/kg daily), 8 weeks) was “significantly increased”. In addition, in assay [1] (setting [4]), the “alanine aminotransferase (ALTL) level” value was “significantly reduced”, the “alkaline phosphatase (ALP) (ALP2S) level” value is on record as “significantly reduced”, the “cholinesterase (CHE2) level” value is recorded as “significantly increased” and the “direct bilirubin (BILD2) level” value is on record as “significantly reduced”. Besides, in assay [1] (setting [4]), the “glutamyl transpeptidase (GGTI2) level” value is listed as “significantly reduced” and the “total bilirubin (BILT3) level” value is “significantly reduced”. Moreover, the TP2 level entry in assay [1] (SMI0 low-dose group (30 mg/kg ig)) was “significantly increased”. Further, in assay [2] (SMI0 150 mg/kg), the “inhibition rate on the cerebral edema volume” value is listed as 34.39% and the “inhibition rate on the cerebral infarction volume” value amounted to 36.06%. In assay [2] (SMI0 150 mg/kg ig 10 min before reperfusion, 24 h reperfusion, model group 19.25%), this compound returned a cerebral edema volume of 12.63%. Further, in assay [2] (SMI0 150 mg/kg ig 10 min before reperfusion, 24 h reperfusion, model group 51.03%), the cerebral infarction volume was determined as 32.62%. Further, the “effect on the proliferation of Lewis lung cancer cells” value in the assay with Lewis lung cancer cells is “no significant inhibitory effect”. In addition, the foot swelling degrees result in assay [3] is “significantly reduced”.
